Experimental findings from EP4653437A2 (Innovo Therapeutics Inc., priority 2023, dated 2024) are described below.

What is called IC50 is the concentration at which inhibition is half-maximal. Read a low IC50 as greater potency.

One test relates to A549 cells. The experiment in a line: Measurement of PGE2-increasing activity in A549 cells (IL-1β stimulated, PGE2 quantified in supernatant). The format is cell-based. The conditions noted are these: Homo sapiens, 24 h; concentration of 1 µM of each compound; IL-1β treated A549 cells; read-out: Increased PGE2 production in A549 cells. In short, it runs like this: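 PGE2 secreted into the supernatant was measured by immunoassay 24 h after treatment. Before treatment, A549 cells were cultured 24 h in 10% FBS F12K, washed, and placed in serum-free medium containing compound (DMSO 0.1% final) plus or minus IL-1β, incubated at 37 °C, 5% CO2.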

For the next test, the target named is T1, human 15-PGDH (Homo sapiens, UniProt P15428).
T1 construct: purchased R&D System 5660-DH
T1 sequence (P15428 1-266): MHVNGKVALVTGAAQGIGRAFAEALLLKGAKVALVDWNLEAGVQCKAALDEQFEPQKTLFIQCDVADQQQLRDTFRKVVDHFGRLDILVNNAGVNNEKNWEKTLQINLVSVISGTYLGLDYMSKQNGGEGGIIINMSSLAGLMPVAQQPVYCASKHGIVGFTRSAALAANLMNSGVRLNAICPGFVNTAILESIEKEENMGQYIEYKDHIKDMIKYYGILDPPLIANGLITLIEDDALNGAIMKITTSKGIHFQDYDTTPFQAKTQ
The experiment in a line: Evaluation of 15-PGDH inhibitory activity (fluorescence enzyme assay, NAD+/PGE2). The format is biochemical. The conditions noted are these: human 15-PGDH enzyme, fluorescence Vmax. As for the experimental part: 15-PGDH inhibition activity of Example compounds was measured as follows. 6.7 ng of human 15-PGDH (R&D System# 5660-DH) enzyme (10 µL) was added to a black 96 well plate, 60 µL of buffer (50 mM Tris-HCl, pH 7.5, 0.01% Tween 20) was added, and 10 µL of 200 µM β-Nicotinamide adenine dinucleotide sodium salt (Sigma, Cat# N0632-5G) was added. 10 µL of (10x) compound solution in DMSO was added and reacted for 10 minutes at room temperature.

Consider `CN1CCC(NC(=O)c2cccc(-c3cccc4c(C(=O)N5CCCCC5)cnn34)c2)CC1` [Example 33, N-(1-methylpiperidin-4-yl)-3-(3-(piperidine-1-carbonyl)pyrazolo[1,5-a]pyridin-7-yl)benzamide], for which, in the test on A549 cells, the fold induction at 1 µM was more than 1.5. For the same compound, the IC50 at human 15-PGDH is not above 100 nM.

On to `O=C(Cc1cccnc1)Nc1ncc(-c2cccc3c(C(=O)N4CCCCC4)cnn23)cc1F` [Example 362, N-(3-fluoro-5-(3-(piperidine-1-carbonyl)pyrazolo[1,5-a]pyridin-7-yl)pyridin-2-yl)-2-(pyridin-3-yl)acetamide], for which the fold induction at 1 µM in the test with A549 cells was more than 1.5. Also, the IC50 at human 15-PGDH is not above 100 nM.

As for `O=C(c1ccc(-c2cccc3c(C(=O)N4CCCCC4)cnn23)cn1)N1CCC1` [Example 77, azetidin-1-yl(5-(3-(piperidine-1-carbonyl)pyrazolo[1,5-a]pyridin-7-yl)pyridin-2-yl)methanone], the fold induction at 1 µM with A549 cells is more than 1.5. The compound also came in with an IC50 against human 15-PGDH not above 100 nM.

For the compound `N#CCCNC(=O)c1ccc(-c2cccc3c(C(=O)N4CCCCC4)cnn23)o1` [Example 90, N-(2-cyanoethyl)-5-(3-(piperidine-1-carbonyl)pyrazolo[1,5-a]pyridin-7-yl)furan-2-carboxamide], in the test on A549 cells, the fold induction at 1 µM is more than 1.5. On human 15-PGDH, this compound returned an IC50 not above 100 nM.

For the compound `Cn1nccc1-c1cnc(F)c(-c2cccc3c(C(=O)N4CCCCC4)cnn23)c1` [Example 325, (7-(2-fluoro-5-(1-methyl-1H-pyrazol-5-yl)pyridin-3-yl)pyrazolo[1,5-a]pyridin-3-yl)(piperidin-1-yl)methanone], the fold induction at 1 µM in the test with A549 cells was more than 1.5. Besides, at human 15-PGDH, the IC50 is not above 100 nM.

With `O=C(c1cnn2c(-c3ccc(-c4ncon4)cc3)cccc12)N1CCCCC1` [Example 352, [7-[4-(1,2,4-oxadiazol-3-yl)phenyl]pyrazolo[1,5-a]pyridin-3-yl]-(1-piperidyl)methanone], in the test on A549 cells, the fold induction at 1 µM is more than 1.5. The IC50 on human 15-PGDH is not above 100 nM.

`O=C(c1cnn2c(-c3cnc(-c4nnc(C(F)(F)F)o4)c(F)c3)cccc12)N1CCCCC1` [Example 394, [7-[5-fluoro-6-[5-(trifluoromethyl)-1,3,4-oxadiazol-2-yl]-3-pyridyl]pyrazolo[1,5-a]pyridin-3-yl]-(1-piperidyl)methanone]: in the test on A549 cells, the fold induction at 1 µM was more than 1.5. The IC50 at human 15-PGDH is not above 100 nM.

With `O=C(NCC1CC1)c1ccc(-c2cccc3c(C(=O)N4CCCCC4)cnn23)cn1` [Example 80, N-(cyclopropylmethyl)-5-(3-(piperidine-1-carbonyl)pyrazolo[1,5-a]pyridin-7-yl)picolinamide], the fold induction at 1 µM in the test on A549 cells is more than 1.5. On human 15-PGDH, the IC50 is not above 100 nM.

As for `COc1noc2ccc(-c3cccc4c(C(=O)N5CCCCC5)cnn34)cc12` [Example 269, (7-(3-methoxybenzo[d]isoxazol-5-yl)pyrazolo[1,5-a]pyridin-3-yl)(piperidin-1-yl)methanone], in the test with A549 cells, the fold induction at 1 µM is more than 1.5. On human 15-PGDH, this compound gave an IC50 not above 100 nM.

Consider `CNC(=O)c1cncc(-c2cccc3c(C(=O)N4CCCCC4)cnn23)c1` [Example 40, N-methyl-5-(3-(piperidine-1-carbonyl)pyrazolo[1,5-a]pyridin-7-yl)nicotinamide], for which, in the test on A549 cells, the fold induction at 1 µM was more than 1.5. This compound also had an IC50 on human 15-PGDH not above 100 nM.

In the case of `O=C(c1cncc(-c2cccc3c(C(=O)N4CCCCC4)cnn23)c1)N1CCC1` [Example 41, azetidin-1-yl(5-(3-(piperidine-1-carbonyl)pyrazolo[1,5-a]pyridin-7-yl)pyridin-3-yl)methanone], the fold induction at 1 µM in the test on A549 cells was more than 1.5. At human 15-PGDH, this compound came in with an IC50 not above 100 nM.

Regarding `Cc1nc(-c2c(F)cc(-c3cccc4c(C(=O)N5CCCCC5)cnn34)cc2F)no1` [Example 328, (7-(3,5-difluoro-4-(5-methyl-1,2,4-oxadiazol-3-yl)phenyl)pyrazolo[1,5-a]pyridin-3-yl)(piperidin-1-yl)methanone], the fold induction at 1 µM in the test with A549 cells is more than 1.5. On human 15-PGDH, this compound showed an IC50 not above 100 nM.

Regarding `CN(C)C1CN(c2ccc(-c3cccc4c(C(=O)N5CCCCC5)cnn34)cn2)C1` [Example 218, (7-(6-(3-(dimethylamino)azetidin-1-yl)pyridin-3-yl)pyrazolo[1,5-a]pyridin-3-yl)(piperidin-1-yl)methanone], in the test on A549 cells, the fold induction at 1 µM was more than 1.5. On human 15-PGDH, this compound yielded an IC50 not above 100 nM.

Consider `N#CCCNC(=O)c1cncc(-c2cccc3c(C(=O)N4CCCCC4)cnn23)c1` [Example 51, N-(2-cyanoethyl)-5-(3-(piperidine-1-carbonyl)pyrazolo[1,5-a]pyridin-7-yl)nicotinamide], for which the fold induction at 1 µM with A549 cells is more than 1.5. At human 15-PGDH, the IC50 is not above 100 nM.

As for `C[C@H]1CCCN(C(=O)c2cnn3c(-c4ccc5c(c4)C(=O)NC5)cccc23)C1` [Example 386, (S)-6-(3-(3-methylpiperidine-1-carbonyl)pyrazolo[1,5-a]pyridin-7-yl)isoindolin-1-one], the fold induction at 1 µM with A549 cells is more than 1.5. The compound also came in with an IC50 at human 15-PGDH not above 100 nM.

As for `O=C(c1cnn2c(-c3ccc(F)nc3)cccc12)N1CCCC(C(F)(F)F)C1` (centres unmarked) [Example 338, (7-(6-fluoropyridin-3-yl)pyrazolo[1,5-a]pyridin-3-yl)(3-(trifluoromethyl)piperidin-1-yl)methanone], the fold induction at 1 µM in the test with A549 cells is more than 1.5. The same compound registered an IC50 on human 15-PGDH not above 100 nM.

Take `O=C(c1cnn2c(Nc3ccc[nH]c3=O)cccc12)N1CCCCC1` [Example 147, 3-((3-(piperidine-1-carbonyl)pyrazolo[1,5-a]pyridin-7-yl)amino)pyridin-2(1H)-one]: in the test with A549 cells, the fold induction at 1 µM is more than 1.5. The IC50 at human 15-PGDH is not above 100 nM.

Consider `O=C(c1cnn2c(-c3ccnc(-c4cnn(Cc5ncon5)c4)c3)cccc12)N1CCCCC1` [Example 397, (7-(2-(1-((1,2,4-oxadiazol-3-yl)methyl)-1H-pyrazol-4-yl)pyridin-4-yl)pyrazolo[1,5-a]pyridin-3-yl)(piperidin-1-yl)methanone], for which the fold induction at 1 µM in the test on A549 cells was more than 1.5. At human 15-PGDH, this compound had an IC50 not above 100 nM.

Take `N#Cc1ccc(-c2cccc3c(C(=O)N4CCCCC4)cnn23)c(F)c1` [Example 285, 3-fluoro-4-[3-(piperidine-1-carbonyl)pyrazolo[1,5-a]pyridin-7-yl]benzonitrile]: in the test on A549 cells, the fold induction at 1 µM is more than 1.5. The compound also registered an IC50 on human 15-PGDH not above 100 nM.

For `O=C(c1cnn2c(-c3ccc(N4CCC5(CCC5)CC4)nc3)cccc12)N1CCCCC1` [Example 222, (7-(6-(7-azaspiro[3.5]nonan-7-yl)pyridin-3-yl)pyrazolo[1,5-a]pyridin-3-yl)(piperidin-1-yl)methanone], in the test on A549 cells, the fold induction at 1 µM is more than 1.5. Moreover, the IC50 on human 15-PGDH was not above 100 nM.

In the case of `CNC(=O)c1ncc(-c2cccc3c(C(=O)N4CCCCC4)cnn23)cc1Cl` [Example 262, 3-chloro-N-methyl-5-[3-(piperidine-1-carbonyl)pyrazolo[1,5-a]pyridin-7-yl]pyridine-2-carboxamide], in the test with A549 cells, the fold induction at 1 µM is more than 1.5. Also, at human 15-PGDH, the IC50 was not above 100 nM.

`O=C1NCCc2ncc(-c3cccc4c(C(=O)N5CCCCC5)cnn34)cc21` [Example 195, 3-(3-(piperidine-1-carbonyl)pyrazolo[1,5-a]pyridin-7-yl)-7,8-dihydro-1,6-naphthyridin-5(6H)-one]: the fold induction at 1 µM in the test with A549 cells is more than 1.5. Also, the IC50 against human 15-PGDH is not above 100 nM.

For `O=C(Cc1cccnc1)Nc1ccc(-c2cccc3c(C(=O)N4CCCCC4)cnn23)cc1` [Example 274, N-(4-(3-(piperidine-1-carbonyl)pyrazolo[1,5-a]pyridin-7-yl)phenyl)-2-(pyridin-3-yl)acetamide], in the test with A549 cells, the fold induction at 1 µM is more than 1.5. The compound also registered an IC50 against human 15-PGDH not above 100 nM.

`CN(C)c1cc(-c2cccc3c(C(=O)N4CCCCC4)cnn23)ccc1C#N` [Example 23, 2-(dimethylamino)-4-(3-(piperidine-1-carbonyl)pyrazolo[1,5-a]pyridin-7-yl)benzonitrile]: in the test on A549 cells, the fold induction at 1 µM was more than 1.5. Besides, the IC50 on human 15-PGDH was not above 100 nM.

For the compound `O=C(c1ccc(-c2cccc3c(C(=O)N4CCCCC4)cnn23)cn1)N1CC2(CCC2)C1` [Example 214, 2-azaspiro[3.3]heptan-2-yl-[5-[3-(piperidine-1-carbonyl)pyrazolo[1,5-a]pyridin-7-yl]-2-pyridyl]methanone], the fold induction at 1 µM in the test on A549 cells is more than 1.5. At human 15-PGDH, the IC50 is not above 100 nM.

`O=C(c1cncc(-c2cccc3c(C(=O)N4CCCCC4)cnn23)c1)N1CC(F)C1` [Example 192, (3-fluoroazetidin-1-yl)(5-(3-(piperidine-1-carbonyl)pyrazolo[1,5-a]pyridin-7-yl)pyridin-3-yl)methanone]: the fold induction at 1 µM in the test on A549 cells is more than 1.5. Moreover, the half-inhibitory concentration (IC50) against human 15-PGDH is not above 100 nM.

As to `COC(=O)c1ncc(-c2cccc3c(C(=O)N4CCCCC4)cnn23)cc1F` [Example 244, methyl 3-fluoro-5-[3-(piperidine-1-carbonyl)pyrazolo[1,5-a]pyridin-7-yl]pyridine-2-carboxylate], the fold induction at 1 µM with A549 cells was less than 1.5. Besides, the IC50 against human 15-PGDH is not above 100 nM.

Consider `CN1CCc2ccc(-c3cccc4c(C(=O)N5CCCCC5)cnn34)cc2C1=O` [Example 132, 2-methyl-7-(3-(piperidine-1-carbonyl)pyrazolo[1,5-a]pyridin-7-yl)-3,4-dihydroisoquinolin-1(2H)-one], for which the fold induction at 1 µM in the test on A549 cells is more than 1.5. The compound further yielded an IC50 against human 15-PGDH not above 100 nM.
